Laboratory results from patent publication US20160115540A1, “PRODRUGS AND DRUGS” (Biogen MA Inc., priority 2013, published 2016).
Counter-ions that a name gives are not always drawn.

System: jejunum
Assay: Transcriptional profiling on Affymetrix GeneChips, single dose, naïve mice: jejunum
Format: in vivo, C57BL/6 mice
Method: Treated mice were sacrificed at 2, 7, or 12 hours. Tissues (liver, spleen, kidney, jejunum, cortex, hippocampus, striatum and whole blood) were collected and analyzed by transcriptional profiling on mouse Affymetrix GeneChips.
Tissues (liver, spleen, kidney, jejunum, cortex, hippocampus, striatum and whole blood) were collected and analyzed by transcriptional profiling on mouse Affymetrix GeneChips.
Animals were exposed to CO2 and whole blood collected via cardiac puncture. Two 100 μl aliquots of whole blood were collected in 1.5 mL microcentrifuge tubes and snap frozen in liquid nitrogen. Peripheral (liver, spleen, kidney and jejunum) and CNS brain (cerebellum, hippocampus, striatum and cortex) tissues were harvested and snap frozen in liquid nitrogen, with special care taken to collect tissues of similar size and from the same location. All samples were stored at −80° C. until RNA extraction was conducted.
For RNA preparation, frozen tissues were placed in 2 mL RNAse-free 96-well blocks with 1.5 mL QIAzol Lysis Reagent (QIAgen) and a 3.2 mm stainless steel bead (BioSpec Products, Bartlesville, Okla.). Tissues were disrupted for four cycles of 45 seconds in a Mini-Beadbeater (Biospec Products). RNA was extracted in chloroform and the aqueous phase was mixed with an equal volume of 70% ethanol. Extracted RNA was applied to RNeasy 96 plates and purified by the spin method according to the manufacturer's protocol (RNeasy 96 Universal Tissue Protocol, QIAgen, Hilden Germany).
Automated sample amplifications and biotin labelings were carried out using the NuGEN Ovation RNA Amplification system V2 (Cat #3100), Ovation WB reagent (Cat #1300) and Encore Biotin module (Cat #4200) (NuGEN Technologies, Inc, San Carlos, Calif.) according to manufacturer's recommendations using an Arrayplex automated liquid handler (Beckman Coulter, Indianapolis, Ind.). Two micrograms of biotin labeled sscDNA probe were hybridized to Affymetrix GeneChip Affymetrix HT_MG-430_PM plate arrays with modified conditions as described in Allaire et al. Washing and staining of the hybridized arrays were completed as described in the GeneChip Expression analysis technical manual for HT plate arrays using the Genechip® Array Station (Affymetrix, Santa Clara, Calif.) with modifications as described in Allaire et al. The processed GeneChip® plate arrays were scanned using GeneTitan scanner (Affymetrix, Santa Clara, Calif.).
Affymetrix scans were subject to quality control (QC) measures. These tests included a visual inspection of the distribution of raw signal intensities and an assessment of RNA degradation, relative log expression (RLE), and normalized unsealed standard error (NUSE). All sample scans that passed these QC metrics were included in the analysis.
All CEL files were subjected to GC-content-based Robust Multi-array Average (GCRMA) normalization (version 2.20.0) (Irizarry R A, et al. Nucleic Acids Res 2003; 31:e15; Li C, et al. Genome Biol 2001; 2:[…]0032). Expression levels were log (base 2) transformed.
All calculations and analyses were carried out using R (version 2.11.1) and Bioconductor computational tools (Gentleman R. Springer Science+Business Media 2005).

[1] = 100DMF-vs-Veh or 100MMF-vs-Veh, 12 h

SMILES: COC(=O)/C=C/C(=O)OC [DMF, dimethyl fumarate]
- FC Lrp8 (1440882_PM_at) (100DMF-vs-100MMF, 2 h): −1.69
- FC Alb (1425260_PM_at) (100DMF-vs-100MMF, 7 h): 9.97
- FC G6pc (1417880_PM_at) (100DMF-vs-100MMF, 7 h): −2.45
- FC Abcc3 (1428988_PM_at) [1]: 2.02
- FC Acsm5 (1437662_PM_at) [1]: 1.86
- FC Akr1b8 (1448894_PM_at) [1]: 17.57
- FC Akr1c12 (1450455_PM_s_at) [1]: 1.72
- FC Akr1c19 (1455454_PM_at) [1]: 3.20
- FC Blvrb (1451386_PM_at) [1]: 1.53
- FC Cbr3 (1427912_PM_at) [1]: 25.95
- FC Ces1e (1419510_PM_at) [1]: 2.70
- FC Ces1f (1424266_PM_s_at) [1]: 6.17
- FC Ces1g (1449486_PM_at) [1]: 7.40
- FC G6pd2 (1422327_PM_s_at) [1]: 1.74
- FC Gpx2 (1449279_PM_at) [1]: 1.67
- FC Gsr (1421816_PM_at) [1]: 2.20
- FC Gss (1441931_PM_x_at) [1]: 1.53
- FC Gsta2 (1421040_PM_a_at) [1]: 5.65
- FC Gsta2 (1421041_PM_s_at) [1]: 2.04
- FC Gsta3 (1423436_PM_at) [1]: 10.36
- FC Gsta3 (1423437_PM_at) [1]: 7.86
- FC Gstm1 (1425627_PM_x_at) [1]: 4.63
- FC Gstm1 (1448330_PM_at) [1]: 4.15
- FC Gstm3 (1427473_PM_at) [1]: 2.03
- FC Gstm3 (1427474_PM_s_at) [1]: 1.57
- FC Gstm4 (1424835_PM_at) [1]: 5.03
- FC Gstm6 (1422072_PM_a_at) [1]: 1.95
- FC Nqo1 (1423627_PM_at) [1]: 2.30
- FC Pir (1429001_PM_at) [1]: 3.79
- FC Setd4 (1425239_PM_at) [1]: 1.66
- FC Setd4 (1460373_PM_a_at) [1]: 1.52
- FC Slc5a4b (1422757_PM_at) [1]: 2.21
- FC Ugt2b5 (1419622_PM_at) [1]: 4.92
- FC Ugt2b35 (1439624_PM_at) [1]: 2.37
- FC Ugt2b36 (1455595_PM_at) [1]: 2.94
- Number of genes, DMF Only / MMF Only (Jejunum): 9
- Akr1c13 (1418672_PM_at) differential expression (Jejunum, 2 hr): 1.62
- Areg (1421134_PM_at) differential expression (Jejunum, 2 hr): 3.58
- B3galt5 (1428397_PM_at) differential expression (Jejunum, 2 hr): −2.77
- Cbr1 (1460196_PM_at) differential expression (Jejunum, 2 hr): 1.55
- Ces1e (1419510_PM_at) differential expression (Jejunum, 2 hr): 1.85
- Dnase2a (1430135_PM_at) differential expression (Jejunum, 2 hr): 1.77
- Dppa5a (1416552_PM_at) differential expression (Jejunum, 2 hr): 3.07
- Dusp4 (1428834_PM_at) differential expression (Jejunum, 2 hr): 1.51
- Entpd5 (1433763_PM_at) differential expression (Jejunum, 2 hr): 1.53
- Ereg (1419431_PM_at) differential expression (Jejunum, 2 hr): 2.50
- Ero1l (1419030_PM_at) differential expression (Jejunum, 2 hr): 1.92
- Esd (1441604_PM_at) differential expression (Jejunum, 2 hr): 1.71
- Fam13a (1456611_PM_at) differential expression (Jejunum, 2 hr): 1.54
- Gclc (1424296_PM_at) differential expression (Jejunum, 2 hr): 4.25
- Gsr (1421816_PM_at) differential expression (Jejunum, 2 hr): 2.23
- Gss (1441931_PM_x_at) differential expression (Jejunum, 2 hr): 1.95
- Gsta3 (1423436_PM_at) differential expression (Jejunum, 2 hr): 4.03
- Gsta4 (1416368_PM_at) differential expression (Jejunum, 2 hr): 1.72
- Gstm1 (1416416_PM_x_at) differential expression (Jejunum, 2 hr): 2.30
- Mafg (1448916_PM_at) differential expression (Jejunum, 2 hr): 2.20
- Nos2 (1420393_PM_at) differential expression (Jejunum, 2 hr): −2.39
- Nqo1 (1423627_PM_at) differential expression (Jejunum, 2 hr): 2.16
- Osgin1 (1424022_PM_at) differential expression (Jejunum, 2 hr): 2.08
- Pgm2 (1437240_PM_at) differential expression (Jejunum, 2 hr): 2.15
- Prss8 (1418320_PM_at) differential expression (Jejunum, 2 hr): 2.60
- Ptk6 (1442923_PM_at) differential expression (Jejunum, 2 hr): −2.42
- Setd4 (1435405_PM_at) differential expression (Jejunum, 2 hr): 1.91
- Slc35e3 (1428805_PM_at) differential expression (Jejunum, 2 hr): 1.53
- Slc40a1 (1417061_PM_at) differential expression (Jejunum, 2 hr): 2.33
- Srr (1453421_PM_at) differential expression (Jejunum, 2 hr): 1.99
- Srxn1 (1425351_PM_at) differential expression (Jejunum, 2 hr): 1.71
- Tifa (1426501_PM_a_at) differential expression (Jejunum, 2 hr): −2.43
- Tox3 (1436600_PM_at) differential expression (Jejunum, 2 hr): 1.70
- Tsku (1440230_PM_at) differential expression (Jejunum, 2 hr): 1.61
- Ugt2b5 (1419622_PM_at) differential expression (Jejunum, 2 hr): 3.40
- Ugt2b36 (1455595_PM_at) differential expression (Jejunum, 2 hr): 2.07
- Unc5c1 (1429950_PM_at) differential expression (Jejunum, 2 hr): −1.53
- Abcc3 (1428988_PM_at) differential expression (Jejunum, 7 hr): 1.88
- Acsm5 (1437662_PM_at) differential expression (Jejunum, 7 hr): 1.60
- Akr1c13 (1418672_PM_at) differential expression (Jejunum, 7 hr): 1.61
- Cbr1 (1460196_PM_at) differential expression (Jejunum, 7 hr): 1.65
- Ces1e (1419510_PM_at) differential expression (Jejunum, 7 hr): 2.10
- Ddc (1426215_PM_at) differential expression (Jejunum, 7 hr): 1.74
- G6pd2 /// G6pdx (1422327_PM_s_at) differential expression (Jejunum, 7 hr): 1.82
- G6pdx (1448354_PM_at) differential expression (Jejunum, 7 hr): 1.54
- Gclc (1424296_PM_at) differential expression (Jejunum, 7 hr): 2.06
- Gm3776 /// Gsta1 /// Gsta2 (1421041_PM_s_at) differential expression (Jejunum, 7 hr): 1.72
- Gsr (1421816_PM_at) differential expression (Jejunum, 7 hr): 2.83
- Gss (1441931_PM_x_at) differential expression (Jejunum, 7 hr): 1.97
- Gsta3 (1423436_PM_at) differential expression (Jejunum, 7 hr): 4.27
- Gsta4 (1416368_PM_at) differential expression (Jejunum, 7 hr): 2.09
- Gstm1 (1416416_PM_x_at) differential expression (Jejunum, 7 hr): 3.19
- Gstm2 (1416411_PM_at) differential expression (Jejunum, 7 hr): 1.58
- Gstm4 (1424835_PM_at) differential expression (Jejunum, 7 hr): 3.83
- Gstm6 (1422072_PM_a_at) differential expression (Jejunum, 7 hr): 1.94
- Htatip2 (1451814_PM_a_at) differential expression (Jejunum, 7 hr): 1.51
- Nqo1 (1423627_PM_at) differential expression (Jejunum, 7 hr): 2.31
- Pir (1429001_PM_at) differential expression (Jejunum, 7 hr): 3.79
- Setd4 (1435405_PM_at) differential expression (Jejunum, 7 hr): 1.90
- Slc5a4b (1422757_PM_at) differential expression (Jejunum, 7 hr): 1.67
- Txnrd1 (1424487_PM_x_at) differential expression (Jejunum, 7 hr): 1.60
- Ugt2b5 (1419622_PM_at) differential expression (Jejunum, 7 hr): 3.42
- Ugt2b36 (1455595_PM_at) differential expression (Jejunum, 7 hr): 2.23
- Abcc3 (1428988_PM_at) differential expression (Jejunum, 12 hr): 2.02
- Acsm5 (1437662_PM_at) differential expression (Jejunum, 12 hr): 1.86
- Akr1c12 /// Akr1c13 (1450455_PM_s_at) differential expression (Jejunum, 12 hr): 1.72
- Aldh1a7 (1418601_PM_at) differential expression (Jejunum, 12 hr): 1.65
- Blvrb (1451386_PM_at) differential expression (Jejunum, 12 hr): 1.53
- Ces1e (1419510_PM_at) differential expression (Jejunum, 12 hr): 2.70
- G6pd2 /// G6pdx (1422327_PM_s_at) differential expression (Jejunum, 12 hr): 1.74
- Gm3776 /// Gsta1 /// Gsta2 (1421041_PM_s_at) differential expression (Jejunum, 12 hr): 2.04
- Gpx2 (1449279_PM_at) differential expression (Jejunum, 12 hr): 1.67
- Gsr (1421816_PM_at) differential expression (Jejunum, 12 hr): 2.20
- Gss (1441931_PM_x_at) differential expression (Jejunum, 12 hr): 1.53
- Gsta3 (1423436_PM_at) differential expression (Jejunum, 12 hr): 10.36
- Gsta4 (1416368_PM_at) differential expression (Jejunum, 12 hr): 2.58
- Gstm1 (1416416_PM_x_at) differential expression (Jejunum, 12 hr): 4.15
- Gstm2 (1416411_PM_at) differential expression (Jejunum, 12 hr): 2.04
- Gstm4 (1424835_PM_at) differential expression (Jejunum, 12 hr): 5.03
- Gstm6 (1422072_PM_a_at) differential expression (Jejunum, 12 hr): 1.95
- Nqo1 (1423627_PM_at) differential expression (Jejunum, 12 hr): 2.30
